Read-outs that look alike come from different tables or passages of the source.
Legend:
Type in all cases: biochemical
Elastase = assay: Selectivity screen of serine proteases, anti-target panel: Elastase
Description: (§1) Compounds 11, 33, and 53 were evaluated in a selectivity screen of serine proteases.

[1] = test system: selected anti-target proteases; assay: Selectivity screen of serine proteases (overall statement); details: none showed any inhibitory activity of the anti-target proteases
Description: as §1

Thrombin = Thrombin (Homo sapiens (Human), UniProt P00734); assay: Selectivity screen of serine proteases, anti-target panel: Thrombin
Description: as §1

Trypsin = assay: Selectivity screen of serine proteases, anti-target panel: Trypsin
Description: as §1

FXa = FXa (Homo sapiens (Human), UniProt P00742); assay: Selectivity screen of serine proteases, anti-target panel: FXa
Description: as §1

[2] = molecular target: human activated kallikrein enzyme (Homo sapiens (Human), UniProt P03952); assay: Inhibition of human activated kallikrein enzyme, fluorogenic peptide substrate assay (two formats); details: read-out: pKal EC50
Description: The example compounds were evaluated for inhibition of the human activated kallikrein enzyme in two formats of an assay employing a fluorogenic peptide substrate. In one assay format, the concentrations of reagents were as follows: 20 mM Tris pH 7.5, 1 mM EDTA, 150 mM sodium chloride, 0.1% PEG-400, 0.1% Triton X-100, 500 pM activated kallikrein enzyme, 300 uM Pro-Phe-Arg-7-amido-4-methylcoumarin substrate. Prior to reaction initiation with substrate, enzyme and inhibitors were preincubated for 30 min at room temperature. After initiation with substrate, reactions were incubated for 10 min at room temperature and fluorescence emission at 460 nm from 380 nm excitation measured with a microplate reader. In another assay format, the concentrations of reagents were as follows: 20 mM Tris pH 7.5, 1 mM EDTA, 150 mM sodium chloride, 0.1% PEG-400, 0.1% Triton X-100, 5 pM activated kallikrein enzyme, 300 uM Pro-Phe-Arg-7-amido-4-methylcoumarin substrate. Prior to reaction initiation with substrate, enzyme and inhibitors were preincubated for 30 min at room temperature. After initiation with substrate, reactions were incubated for 18 hr at room temperature and fluorescence emission at 460 nm from 380 nm excitation measured with a microplate reader.

[3] = Table 2, column head prints nM, ranges defined in μM

Sequence of FXa (P00742 235-488): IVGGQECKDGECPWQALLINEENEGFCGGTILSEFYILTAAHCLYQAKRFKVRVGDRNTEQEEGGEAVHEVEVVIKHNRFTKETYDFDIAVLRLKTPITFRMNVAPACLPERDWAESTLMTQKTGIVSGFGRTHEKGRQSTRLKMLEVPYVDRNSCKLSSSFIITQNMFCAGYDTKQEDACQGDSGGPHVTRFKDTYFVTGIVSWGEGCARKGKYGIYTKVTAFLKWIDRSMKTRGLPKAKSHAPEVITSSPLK
Sequence of FXa (P00742 41-179 partner): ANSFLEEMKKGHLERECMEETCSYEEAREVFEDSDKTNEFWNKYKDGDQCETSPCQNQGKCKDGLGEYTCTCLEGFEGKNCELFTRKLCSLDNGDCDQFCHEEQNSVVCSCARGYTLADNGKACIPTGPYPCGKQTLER
Sequence of human activated kallikrein enzyme (P03952 391-638): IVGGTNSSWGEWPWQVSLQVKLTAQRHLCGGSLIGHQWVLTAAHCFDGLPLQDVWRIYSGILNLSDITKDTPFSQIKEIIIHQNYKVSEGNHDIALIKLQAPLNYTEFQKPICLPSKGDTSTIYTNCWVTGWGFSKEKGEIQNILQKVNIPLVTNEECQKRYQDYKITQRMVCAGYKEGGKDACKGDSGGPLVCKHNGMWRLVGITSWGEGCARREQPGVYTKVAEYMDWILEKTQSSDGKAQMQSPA
Sequence of human activated kallikrein enzyme (P03952 20-390 partner): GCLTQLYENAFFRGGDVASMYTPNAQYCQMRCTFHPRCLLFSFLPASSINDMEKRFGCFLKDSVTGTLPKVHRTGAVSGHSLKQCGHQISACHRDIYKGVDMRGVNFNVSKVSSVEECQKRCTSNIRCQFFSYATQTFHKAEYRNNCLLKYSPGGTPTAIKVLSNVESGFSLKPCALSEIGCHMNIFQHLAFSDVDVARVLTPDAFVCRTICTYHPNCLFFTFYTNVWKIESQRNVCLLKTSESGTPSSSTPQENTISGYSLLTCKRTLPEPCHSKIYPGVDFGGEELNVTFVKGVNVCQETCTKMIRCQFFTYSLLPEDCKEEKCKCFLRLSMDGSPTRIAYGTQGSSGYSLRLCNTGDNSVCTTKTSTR

EC50 [2, 3] [nM] | Structure (SMILES) | further results
≤ 100 | CNC(=O)[C@H](CCCCNC(=N)N)NC(=O)c1csc([C@@H]2C[C@@H](N)CN2C(=O)c2cn3cc(Cl)ccc3n2)n1 [Compound 11, 2-((2S,4R)-4-amino-1-(6-chloroimidazo[1,2-a]pyridine-2-carbonyl)pyrrolidin-2-yl)-N—((S)-6-guanidino-1-(methylamino)-1-oxohexan-2-yl)thiazole-4-carboxamide] | IC50 (Elastase): > 10000 nM; Selectivity for pKal over selected anti-target proteases [1]: selective inhibitors of pKal; IC50 (Thrombin): > 10000 nM; IC50 (Trypsin): > 100000 nM; IC50 (FXa): > 10000 nM; EC50 ([2]; Table 3): 32 nM
1000 to 5000 | CNC(=O)[C@H](CCCCNC(=N)N)NC(=O)c1csc([C@@H]2CCCN2C(=O)c2cn3cc(Cl)ccc3n2)n1 [Compound 33, 2-((S)-1-(6-Chloroimidazo[1,2-a]pyridine-2-carbonyl)pyrrolidin-2-yl)-N—((S)-6-guanidino-1-(methylamino)-1-oxohexan-2-yl)thiazole-4-carboxamide] | IC50 (Elastase): > 10000 nM; Selectivity for pKal over selected anti-target proteases [1]: selective inhibitors of pKal; IC50 (Thrombin): > 10000 nM; IC50 (Trypsin): > 100000 nM; IC50 (FXa): > 10000 nM; EC50 ([2]; Table 3): 3240 nM
> 9900 | Cc1cc(N)nc(C)c1CCNC(=O)c1csc([C@@H]2C[C@@H](N)CN2C(=O)c2cn3cc(Cl)ccc3n2)n1 [Compound 52, 2-((2S,4R)-4-amino-1-(6-chloroimidazo[1,2-a]pyridine-2-carbonyl)pyrrolidin-2-yl)-N-(2-(6-amino-2,4-dimethylpyridin-3-yl)ethyl)thiazole-4-carboxamide] | 
≤ 100 | Nc1nccc2cc(CCNC(=O)c3csc([C@@H]4C[C@@H](N)CN4C(=O)c4cn5cc(Cl)ccc5n4)n3)ccc12 [Compound 53, 2-((2S,4R)-4-amino-1-(6-chloroimidazo[1,2-a]pyridine-2-carbonyl)pyrrolidin-2-yl)-N-(2-(1-aminoisoquinolin-6-yl)ethyl)thiazole-4-carboxamide] | IC50 (Elastase): > 10000 nM; Selectivity for pKal over selected anti-target proteases [1]: selective inhibitors of pKal; IC50 (Thrombin): > 10000 nM; IC50 (Trypsin): > 100000 nM; IC50 (FXa): > 10000 nM; EC50 ([2]; Table 3): 15 nM
1000 to 5000 | NCc1ccc(CCNC(=O)c2csc([C@@H]3C[C@@H](N)CN3C(=O)c3cn4cc(Cl)ccc4n3)n2)cc1 [Compound 54, 2-((2S,4R)-4-amino-1-(6-chloroimidazo[1,2-a]pyridine-2-carbonyl)pyrrolidin-2-yl)-N-(4-(aminomethyl)phenethyl)thiazole-4-carboxamide] | 
100 to 1000 | N[C@@H]1C[C@@H](c2nc(C(=O)NCc3ncn4ccc(Cl)cc34)cs2)N(C(=O)c2cn3cc(Cl)ccc3n2)C1 [Compound 55, 2-((2S,4R)-4-amino-1-(6-chloroimidazo[1,2-a]pyridine-2-carbonyl)pyrrolidin-2-yl)-N-((7-chloroimidazo[1,5-a]pyridin-1-yl)methyl)thiazole-4-carboxamide] | 
> 9900 | N[C@@H]1C[C@@H](c2nc(C(=O)NCc3ccc4cc(Cl)ccc4c3)cs2)N(C(=O)c2cn3cc(Cl)ccc3n2)C1 [Compound 56, 2-((2S,4R)-4-amino-1-(6-chloroimidazo[1,2-a]pyridine-2-carbonyl)pyrrolidin-2-yl)-N-((6-chloronaphthalen-2-yl)methyl)thiazole-4-carboxamide] | 
1000 to 5000 | CNC(=O)[C@@H](CCCCNC(=N)N)NC(=O)c1csc([C@@H]2C[C@@H](N)CN2C(=O)c2cc3cc(Cl)ccc3s2)n1 [Compound 57, 2-((2S,4R)-4-amino-1-(5-chlorobenzo[b]thiophene-2-carbonyl)pyrrolidin-2-yl)-N—((R)-6-guanidino-1-(methylamino)-1-oxohexan-2-yl)thiazole-4-carboxamide] | 
5000 to 9900 | N[C@@H]1C[C@@H](c2nc(C(=O)NCc3n[nH]c4ccc(Cl)cc34)cs2)N(C(=O)c2cn3cc(Cl)ccc3n2)C1 [Compound 58, 2-((2S,4R)-4-amino-1-(6-chloroimidazo[1,2-a]pyridine-2-carbonyl)pyrrolidin-2-yl)-N-((5-chloro-1H-indazol-3-yl)methyl)thiazole-4-carboxamide] | 
> 9900 | N[C@@H]1C[C@@H](c2nc(C(=O)NCc3n[nH]c4cc(Cl)ccc34)cs2)N(C(=O)c2cn3cc(Cl)ccc3n2)C1 [Compound 59, 2-((2S,4R)-4-amino-1-(6-chloroimidazo[1,2-a]pyridine-2-carbonyl)pyrrolidin-2-yl)-N-((6-chloro-1H-indazol-3-yl)methyl)thiazole-4-carboxamide] | 
≤ 100 | Cc1cc2c(N)nccc2c(C)c1CNC(=O)c1csc([C@@H]2C[C@@H](N)CN2C(=O)c2cn3cc(Cl)ccc3n2)n1 [Compound 60, 2-((2S,4R)-4-amino-1-(6-chloroimidazo[1,2-a]pyridine-2-carbonyl)pyrrolidin-2-yl)-N-((1-amino-5,7-dimethylisoquinolin-6-yl)methyl)thiazole-4-carboxamide] | 
100 to 1000 | CNC(=O)[C@H](CCCCNC(=N)N)NC(=O)c1csc([C@@H]2C[C@@H](N)CN2C(=O)c2cc3cc(Cl)c(Cl)cc3s2)n1 [Compound 61, 2-((2S,4R)-4-amino-1-(5,6-dichlorobenzo[b]thiophene-2-carbonyl)pyrrolidin-2-yl)-N—((S)-6-guanidino-1-(methylamino)-1-oxohexan-2-yl)thiazole-4-carboxamide] | 
100 to 1000 | CNC(=O)[C@H](CCCCNC(=N)N)NC(=O)c1csc([C@@H]2C[C@@H](N)CN2C(=O)c2cc3ccc(Cl)cc3s2)n1 [Compound 62, 2-((2S,4R)-4-amino-1-(6-chlorobenzo[b]thiophene-2-carbonyl)pyrrolidin-2-yl)-N—((S)-6-guanidino-1-(methylamino)-1-oxohexan-2-yl)thiazole-4-carboxamide] | 
1000 to 5000 | CNC(=O)[C@H](CCCCNC(=N)N)NC(=O)c1csc([C@@H]2C[C@@H](N)CN2C(=O)c2cc3c(Cl)cccc3s2)n1 [Compound 63, 2-((2S,4R)-4-amino-1-(4-chlorobenzo[b]thiophene-2-carbonyl)pyrrolidin-2-yl)-N—((S)-6-guanidino-1-(methylamino)-1-oxohexan-2-yl)thiazole-4-carboxamide] | 
100 to 1000 | CNC(=O)[C@H](CCCCNC(=N)N)NC(=O)c1csc([C@@H]2C[C@@H](N)CN2C(=O)c2cc3cc(C(F)(F)F)ccc3s2)n1 [Compound 64, 2-((2S,4R)-4-amino-1-(5-(trifluoromethyl)benzo[b]thiophene-2-carbonyl)pyrrolidin-2-yl)-N—((S)-6-guanidino-1-(methylamino)-1-oxohexan-2-yl)thiazole-4-carboxamide] | 
100 to 1000 | CNC(=O)[C@H](CCCCNC(=N)N)NC(=O)c1csc([C@@H]2C[C@@H](N)CN2C(=O)c2cc3ccc(C)cc3s2)n1 [Compound 65, 2-((2S,4R)-4-amino-1-(6-methylbenzo[b]thiophene-2-carbonyl)pyrrolidin-2-yl)-N—((S)-6-guanidino-1-(methylamino)-1-oxohexan-2-yl)thiazole-4-carboxamide] | 
100 to 1000 | CNC(=O)[C@H](CCCCNC(=N)N)NC(=O)c1csc([C@@H]2C[C@@H](N)CN2C(=O)c2cnc3ccc(Cl)cc3c2)n1 [Compound 66, 2-((2S,4R)-4-amino-1-(6-chloroquinoline-3-carbonyl)pyrrolidin-2-yl)-N—((S)-6-guanidino-1-(methylamino)-1-oxohexan-2-yl)thiazole-4-carboxamide] | 
1000 to 5000 | CNC(=O)[C@H](CCCCNC(=N)N)NC(=O)c1csc([C@@H]2C[C@@H](N)CN2C(=O)c2ccc3nc(Cl)ccc3c2)n1 [Compound 67, 2-((2S,4R)-4-amino-1-(2-chloroquinoline-6-carbonyl)pyrrolidin-2-yl)-N—((S)-6-guanidino-1-(methylamino)-1-oxohexan-2-yl)thiazole-4-carboxamide] | 

— US11168083B2, “Inhibitors of Plasma Kallikrein and uses thereof” (Takeda Pharmaceutical Company Limited, priority 2017, dated 2021)
